Source: patent US20130302305A1, “Methods for Treating Gout in Patients Subpopulations” (Metabolex, Inc., priority 2011, published 2013)
“And” between values parts separate entries of the source, which are not always exact repeats. Equal entries are not always repeated.

What was measured:
gout patients = conditions: monotherapy at 40, 80, 120, 160 and 240 mg/day; cited from earlier work
[1] = tested on: type 2 diabetes patients inadequately controlled on existing insulin therapy; experiment: Phase 2 study M102-20303: HbA1c; assay type: in vivo, human; conditions: for reduction from baseline in HbA1c: all patients, endpoint at week 16
Protocol: (§1) FIGS. 5-7 were generated based on a randomized, double-blind, placebo-controlled phase 2 study, M102-20303. In this study, two dose levels of (−)-halofenate (200 mg and 400 mg) or placebo were given orally daily for 12 weeks to a total of 217 type 2 diabetes patients who were inadequately controlled on existing insulin therapy. In addition to their stable dose of insulin, these patients received the study drug for 12 weeks, and followed up for an additional four weeks. In this study, change in HbA1c from baseline at week 16 was the primary endpoint and changes in fasting plasma glucose and triglyceride from baseline at Week 12 were secondary endpoints. In order to maintain the blinded status, the HbA1c results following administration of double-blind study medication were not available to any parties until the studies were unblinded. In this study, patients were not allowed to add any other glucose lowering agent(s) or to change their existing doses of insulin. Patients who added lipid lowering agent(s) or changed their existing doses of lipid lowering agent(s) were excluded from the triglyceride analysis. Patients who received (−)-halofenate during the study but had no measurable (−)-halofenate in the blood were defined as non-compliant and were excluded from the analysis.

[2] = tested on: type 2 diabetes patients inadequately controlled on existing insulin therapy; experiment: Phase 2 study M102-20303: fasting plasma glucose (FPG); assay type: in vivo, human; conditions: for mean observed change in FPG from baseline at Week 12: all patients
Protocol: as §1

type 2 diabetic patients [3] = experiment: Pooled analysis of four phase 2 studies: change in serum uric acid (sUA) from baseline; assay type: in vivo, human; conditions: for reduction in serum uric acid from baseline: all analysed patients, 12-24 weeks (pooled)
Protocol: (§2) FIGS. 1-4 were generated based on the pooled analysis of four phase 2 studies conducted with (−)-halofenate in type 2 diabetic patients. In these studies a total of 955 patients were enrolled. In the M102-20303 study, two dose levels of (−)-halofenate (200 mg and 400 mg) or placebo were given orally daily to a total of 217 patients for 12 weeks. In the M102-20405 study, (−)-halofenate at a dose of 600 mg or placebo was given daily to a total of 100 patients for 12 weeks. In the M102-20509 study, three dose levels of (−)-halofenate (200 mg, 400 mg and 600 mg), Actos® 30 mg or placebo were given orally daily to a total of 396 patients for 16 weeks. In M102-20814 study, two dose levels of (−)-halofenate (400 mg and 600 mg), Actos® 30-45 mg or placebo were given orally daily to a total of 242 patients for 24 weeks. In these studies, change in serum uric acid (sUA) from baseline was one of the important endpoints. In order to maintain the blinded status, the sUA results following administration of double-blind study medication were not available to any parties until the studies were unblinded. Patients who added or changed the existing doses of medications that are known to influence serum uric acid levels were excluded from the serum uric acid analysis. Patients received either (−)-halofenate or matching placebo during the study were included in this exploratory analysis. Patients who received (−)-halofenate during the study but had no measurable (−)-halofenate in the blood were defined as non-compliant and were excluded from the analysis. This analysis indicated statistically significant dose dependent reduction in serum uric acid from baseline: 2% in the placebo group (n=252), −11% in the 200 mg group (n=125), −20% in the 400 mg group (n=174), and −27% in the 600 mg group (n=159); p<0.0001 for all dose groups. In order to evaluate the sUA response in CKD patients, in addition to the analysis described above, the patients were subdivided based on their baseline kidney function status. The kidney function status of each patient was evaluated by estimating the creatinine clearance (glomerular filtration rate) using the Cockcroft-Gault equation [Cockcroft-Gault GFR=(140−age)×(Body weight in kg)×(0.85 if female)/(72×serum creatinine)]. For estimating the baseline creatinine clearance, baseline body weight (kg) and baseline serum creatinine values were used and similarly, for estimating the end-of-the study creatinine clearance, end-of-study body weight and end-of-study serum creatinine values were used. […] In this analysis there were no patients with CKD4 (severe CKD) or CKD5 (kidney failure).

type 2 diabetic patients [4] = experiment: Pooled analysis of four phase 2 studies: estimated creatinine clearance (Cockcroft-Gault), kidney function status; assay type: in vivo, human; conditions: for Mean Baseline estimated Cr Cl (mL/min) (second column of that head, c3): all analysed patients
Protocol: as §2
The changes in estimated creatinine clearance values in the 200 mg, 400 mg, and 600 mg groups compared to placebo group were not statistically significant.

[5] = tested on: type 2 diabetes patients inadequately controlled on existing insulin therapy; experiment: Phase 2 study M102-20303: triglycerides; assay type: in vivo, human; conditions: CKD2 and CKD3 (mild to moderate CKD) patients, 400 mg daily for 12 weeks
Protocol: as §1

[6] = CKD2 and CKD3 (mild to moderate CKD) patients, 400 mg daily for 12 weeks

In the case of `O=c1[nH]cnc2c(CN3C[C@H](CO)[C@@H](O)C3)c[nH]c12` [Ulodesine, 7-(((3R,4R)-3-hydroxy-4-(hydroxymethyl)pyrrolidin-1-yl)methyl)-3H-pyrrolo[3,2-d]pyrimidin-4(5H)-one], the “effect on serum uric acid” value (gout patients) is given as “rapidly and significantly reduced serum uric acid”.
With `CC(=O)NCCOC(=O)[C@H](Oc1cccc(C(F)(F)F)c1)c1ccc(Cl)cc1` [(−)-halofenate, (−)-(R)-(4-chloro-phenyl)-(3-trifluoromethyl-phenoxy)-acetic acid 2-acetylamino-ethyl ester] the “Change in HbA1c (%)” value [1, 6] was −1.1%, the “End-of-study HbA1c (%)” value [1, 6] was 8.1% and the “reduction from baseline in HbA1c” value ([1]; 200 mg daily for 12 weeks on stable insulin) was −0.9%. For the same compound, the “reduction from baseline in HbA1c” value ([1]; 400 mg daily for 12 weeks on stable insulin) was −1.0%, the “Change in FPG (%)” value [2, 6] was −18.0% and −17.6% and the “End-of-study FPG” value [2, 6] was 136.5 mg/dL. For the same compound, the “mean observed change in FPG from baseline at Week 12” value ([2]; 200 mg daily) was -10.9 mg/dL, the “mean observed change in FPG from baseline at Week 12” value ([2]; 400 mg daily) was -29.2 mg/dL and the “Mean Change in sUA (%)” value (type 2 diabetic patients [3]; 200 mg daily, CKD2 and CKD3 patients) was −14% and −14.30%. For the same compound, the “Mean Change in sUA (%)” value (type 2 diabetic patients [3]; 400 mg daily, CKD2 and CKD3 patients) was −21% and −21.30%, the “Mean Change in sUA (%)” value (type 2 diabetic patients [3]; 600 mg daily, CKD2 (mild CKD) patients) was −28% and −28.2% and the “Mean Change in sUA (%)” value (type 2 diabetic patients [3]; 600 mg daily, CKD2 and CKD3 patients) was −29%. The “Mean Change in sUA (%)” value (type 2 diabetic patients [3]; 600 mg daily, CKD3 (moderate CKD) patients) was −36% and −35.6%, the “Mean Change in sUA (%)” value (type 2 diabetic patients [3]; 600 mg daily, Normal and CKD1 patients) was −25% and −25.3% and the “urate-lowering effect when co-administered with aspirin” value (type 2 diabetic patients [3]; 200, 400 and 600 mg daily with low to medium doses of aspirin (<= about 325 mg/day) vs no aspirin) was “does not result in clinically significant loss of the urate-lowering effect”. For the same compound, the “urate-lowering effect when co-administered with diuretics” value (type 2 diabetic patients [3]; 200, 400 and 600 mg daily with thiazide or other diuretics vs no diuretics) was “does not result in clinically significant loss of the urate-lowering effect”, the “reduction in serum uric acid from baseline” value (“reduction in serum uric acid” for short) (type 2 diabetic patients [3]; 200 mg orally daily) was −11% and the “reduction in serum uric acid” value (type 2 diabetic patients [3]; 400 mg orally daily) was −20%. The “reduction in serum uric acid” value (type 2 diabetic patients [3]; 600 mg orally daily) was −27%, the “change in serum uric acid (sUA) from baseline” value (“change in serum uric acid (sUA)” for short) (type 2 diabetic patients [3]; aspirin treated patients (<= about 325 mg/day), 200 mg daily) was −13% and the “change in serum uric acid (sUA)” value (type 2 diabetic patients [3]; aspirin treated patients (<= about 325 mg/day), 400 mg daily) was −20%. The “change in serum uric acid (sUA)” value (type 2 diabetic patients [3]; aspirin treated patients (<= about 325 mg/day), 600 mg daily) was −27%, the “change in serum uric acid (sUA)” value (type 2 diabetic patients [3]; patients not taking any diuretics, 200 mg daily) was −11% and the “change in serum uric acid (sUA)” value (type 2 diabetic patients [3]; patients not taking any diuretics, 400 mg daily) was −21%. For the same compound, the “change in serum uric acid (sUA)” value (type 2 diabetic patients [3]; patients not taking any diuretics, 600 mg daily) was −27%, the “change in serum uric acid (sUA)” value (type 2 diabetic patients [3]; patients not taking aspirin, 200 mg daily) was −10% and the “change in serum uric acid (sUA)” value (type 2 diabetic patients [3]; patients not taking aspirin, 400 mg daily) was −20%. For the same compound, the “change in serum uric acid (sUA)” value (type 2 diabetic patients [3]; patients not taking aspirin, 600 mg daily) was −26%, the “change in serum uric acid (sUA)” value (type 2 diabetic patients [3]; patients taking any diuretics, 200 mg daily) was −12% and the “change in serum uric acid (sUA)” value (type 2 diabetic patients [3]; patients taking any diuretics, 400 mg daily) was −15%. For the same compound, the “change in serum uric acid (sUA)” value (type 2 diabetic patients [3]; patients taking any diuretics, 600 mg daily) was −24%, the “change in serum uric acid (sUA)” value (type 2 diabetic patients [3]; thiazide diuretic treated patients, 200 mg daily) was −16% and the “change in serum uric acid (sUA)” value (type 2 diabetic patients [3]; thiazide diuretic treated patients, 400 mg daily) was −17%. For the same compound, the “change in serum uric acid (sUA)” value (type 2 diabetic patients [3]; thiazide diuretic treated patients, 600 mg daily) was −24%, the “Mean Baseline estimated Cr Cl (mL/min) (second column of that head, c3)” value (“Mean Baseline estimated Cr Cl (mL/min)” below) (type 2 diabetic patients [4]; 200 mg daily) was 102.4 mL/min and the “change in CrCL as compared to placebo” value (type 2 diabetic patients [4]; 200 mg, 400 mg and 600 mg per day (FIG. 4)) was “no clinically significant change in CrCL”. For the same compound, the “Mean Baseline estimated Cr Cl (mL/min)” value (type 2 diabetic patients [4]; 400 mg daily) was 103.5 mL/min, the “Mean Baseline estimated Cr Cl (mL/min)” value (type 2 diabetic patients [4]; 600 mg daily) was 100.6 mL/min and the “Change in triglyceride” value [5] was -33.6 mg/dL. The “End-of-study triglyceride” value [5] was 168.6 mg/dL.
